Test system: yeast genes (expressed mRNA)
Assay: DNA chip measurement of expressed mRNA of yeast genes after culture with a toxic chemical substance
Format: cell-based, Saccharomyces cerevisiae S288C
Conditions: for level of expressed mRNA in the presence of chemical substance / level in the absence of chemical substance: cultured two hours with the chemical substance; for The level of expressed mRNA in the presence of chemical substance/The level of expressed mRNA in the absence of chemical substance: cultured two hours with substance
Description: Yeast (Saccharomyces cerevisiae S288C (a SUC2mal mel gap2 CUP1)) were cultured at 25° C. on YPD medium (yeast extract 1%, polypeptone 2%, glucose 2%). One of toxic chemical substances was added to the cell at logarithmic growth phase, and the cell was further cultured for two hours. Cell was cultured without any chemical substance in the same condition, and was used as a control. Concentrations of the chemical substances were defined to inhibit the growth of the yeast but not lead to death.
After the completion of cultivation, the culture was centrifuged to collect the cells. To the cells, sodium acetate buffer (50 mM sodium acetate, 10 mM EDTA, 1% SDS) was added, and the mixture was shaken at 65° C. for five minutes, followed by returning to room temperature, and obtaining the supernatant, which procedure was repeated two times. To the supernatant, ½ amount of a solution of phenol/chloroform (1:1) was added, and the mixture was centrifuged to give a supernatant, an equal amount of chloroform was added, and the mixture was centrifuged to give a supernatant. To the supernatant, an equal amount of isopropanol containing 0.3 M sodium acetate was added, and the mixture was allowed to stand at room temperature for 30 minutes, after which the mixture was centrifuged to give sediment of the whole RNAs. Seventy % ethanol was added to the sediment, and the mixture was again centrifuged to give sediment, which was then dried and dissolved in water. mRNA was isolated from the whole RNAs as followings. In view of the fact that a poly A chain is attached to the 3′ terminus of mRNA, a polynucleotide having a poly T structure which was immobilized on the surface of latex beads was used to trap the mRNA, and then the mRNA was washed and eluted with spine column (Oligotex-dT30<Super>mRNA Purification Kit, Takara). Reverse transcription of the mRNA was conducted with a reverse transcriptase (Super Script II Reverse Transcriptase; catalogue No. 18064-014, GibcoBRL) using fluorescence-labeled nucleotides to give cDNAs that were introduced with Cy3-dUTP or Cy5-dUTP during the reverse transcription.
The labeled cDNAs were dissolved in TE buffer (10 mM Tris-HCl/1 mM EDTA, pH 8.0), and the solution was dropped on the DNA chip containing the whole genes of yeast (DNA Chip Research Inc. Japan) so that the cDNAs were hybridized on the DNA chip at 65° C. for over 12 hours. The fluoresces intensity of the DNA chip was read with a scanner, and the ratio relative to the fluorescence intensity resulting from the absence of chemical substance was estimated as the following, which is shown in Tables 1 to 9.
In the Tables, “Intensity” indicated in the rightmost column is a value of the level of expressed mRNA of each gene in control cells as divided by the average level of the expressions of the whole genes. A gene of which mRNA level is lower in control, and is higher in cases of addition of chemical substance, is especially useful in the detection of toxic substances.
Here, when a ratio of an amount of mRNA expressed in the presence of the chemical substance to an amount of mRNA expressed in the absence of the chemical substance is two or more, then it is considered significant.

## [Cl][Hg][Cl] [(3), HgCl2]
Yeast gene YJL097W
  level of expressed mRNA in the presence of chemical substance / level in the absence of chemical substance: 3.7
Yeast gene YJL151C
  The level of expressed mRNA in the presence of chemical substance/The level of expressed mRNA in the absence of chemical substance: 3.2
Yeast gene YJL152W
  The level of expressed mRNA in the presence of chemical substance/The level of expressed mRNA in the absence of chemical substance: 1.8
Yeast gene YJL161W
  The level of expressed mRNA in the presence of chemical substance/The level of expressed mRNA in the absence of chemical substance: 1.5
Yeast gene YJL171C
  The level of expressed mRNA in the presence of chemical substance/The level of expressed mRNA in the absence of chemical substance: 2.8
Yeast gene YJR008W
  The level of expressed mRNA in the presence of chemical substance/The level of expressed mRNA in the absence of chemical substance: 1.2
Yeast gene YJR030C
  level of expressed mRNA in the presence of chemical substance / level in the absence of chemical substance: 0.9
Yeast gene YJR054W
  The level of expressed mRNA in the presence of chemical substance/The level of expressed mRNA in the absence of chemical substance: 0.3
Yeast gene YKL051W
  level of expressed mRNA in the presence of chemical substance / level in the absence of chemical substance: 4.7
Yeast gene YKL071W
  The level of expressed mRNA in the presence of chemical substance/The level of expressed mRNA in the absence of chemical substance: 5.4
Yeast gene YKL086W
  The level of expressed mRNA in the presence of chemical substance/The level of expressed mRNA in the absence of chemical substance: 2.4
Yeast gene YKL097C
  level of expressed mRNA in the presence of chemical substance / level in the absence of chemical substance: 0.6
Yeast gene YKL100C
  level of expressed mRNA in the presence of chemical substance / level in the absence of chemical substance: 5.0
Yeast gene YKL151C
  The level of expressed mRNA in the presence of chemical substance/The level of expressed mRNA in the absence of chemical substance: 1.7
Yeast gene YKL153W
  The level of expressed mRNA in the presence of chemical substance/The level of expressed mRNA in the absence of chemical substance: 2.0
Yeast gene YKL195W
  The level of expressed mRNA in the presence of chemical substance/The level of expressed mRNA in the absence of chemical substance: 0.4
Yeast gene YKR040C
  level of expressed mRNA in the presence of chemical substance / level in the absence of chemical substance: 2.4
Yeast gene YKR091W
  The level of expressed mRNA in the presence of chemical substance/The level of expressed mRNA in the absence of chemical substance: 0.9
Yeast gene YLR054C
  The level of expressed mRNA in the presence of chemical substance/The level of expressed mRNA in the absence of chemical substance: 0.4
Yeast gene YLR149C
  The level of expressed mRNA in the presence of chemical substance/The level of expressed mRNA in the absence of chemical substance: 3.4
Yeast gene YLR152C
  The level of expressed mRNA in the presence of chemical substance/The level of expressed mRNA in the absence of chemical substance: 1.1
Yeast gene YLR194C
  The level of expressed mRNA in the presence of chemical substance/The level of expressed mRNA in the absence of chemical substance: 1.3
Yeast gene YLR226W
  level of expressed mRNA in the presence of chemical substance / level in the absence of chemical substance: 0.3
Yeast gene YLR324W
  The level of expressed mRNA in the presence of chemical substance/The level of expressed mRNA in the absence of chemical substance: 0.9
Yeast gene YLR338W
  level of expressed mRNA in the presence of chemical substance / level in the absence of chemical substance: 1.4
Yeast gene YLR350W
  The level of expressed mRNA in the presence of chemical substance/The level of expressed mRNA in the absence of chemical substance: 3.2
Yeast gene YLR387C
  The level of expressed mRNA in the presence of chemical substance/The level of expressed mRNA in the absence of chemical substance: 0.8
Yeast gene YLR392C
  level of expressed mRNA in the presence of chemical substance / level in the absence of chemical substance: 0.8
Yeast gene YLR415C
  level of expressed mRNA in the presence of chemical substance / level in the absence of chemical substance: 6.7
Yeast gene YLR427W
  level of expressed mRNA in the presence of chemical substance / level in the absence of chemical substance: 0.2
Yeast gene YLR460C
  The level of expressed mRNA in the presence of chemical substance/The level of expressed mRNA in the absence of chemical substance: 2.0
Yeast gene YML013W
  level of expressed mRNA in the presence of chemical substance / level in the absence of chemical substance: 0.4
Yeast gene YML029W
  level of expressed mRNA in the presence of chemical substance / level in the absence of chemical substance: 1.3
Yeast gene YML041C
  level of expressed mRNA in the presence of chemical substance / level in the absence of chemical substance: 0.6
Yeast gene YML079W
  level of expressed mRNA in the presence of chemical substance / level in the absence of chemical substance: 1.1
Yeast gene YML117W
  The level of expressed mRNA in the presence of chemical substance/The level of expressed mRNA in the absence of chemical substance: 0.9
Yeast gene YMR009W
  The level of expressed mRNA in the presence of chemical substance/The level of expressed mRNA in the absence of chemical substance: 0.5
Yeast gene YMR067C
  The level of expressed mRNA in the presence of chemical substance/The level of expressed mRNA in the absence of chemical substance: 1.1
Yeast gene YMR068W
  level of expressed mRNA in the presence of chemical substance / level in the absence of chemical substance: 0.8
Yeast gene YMR071C
  level of expressed mRNA in the presence of chemical substance / level in the absence of chemical substance: 1.1
Yeast gene YMR090W
  The level of expressed mRNA in the presence of chemical substance/The level of expressed mRNA in the absence of chemical substance: 2.3
Yeast gene YMR095C
  The level of expressed mRNA in the presence of chemical substance/The level of expressed mRNA in the absence of chemical substance: 1.6
Yeast gene YMR097C
  The level of expressed mRNA in the presence of chemical substance/The level of expressed mRNA in the absence of chemical substance: 0.7
Yeast gene YMR102C
  The level of expressed mRNA in the presence of chemical substance/The level of expressed mRNA in the absence of chemical substance: 1.1
Yeast gene YMR107W
  The level of expressed mRNA in the presence of chemical substance/The level of expressed mRNA in the absence of chemical substance: 1.7
Yeast gene YMR160W
  level of expressed mRNA in the presence of chemical substance / level in the absence of chemical substance: 1.2
Yeast gene YMR180C
  The level of expressed mRNA in the presence of chemical substance/The level of expressed mRNA in the absence of chemical substance: 1.0
Yeast gene YMR184W
  The level of expressed mRNA in the presence of chemical substance/The level of expressed mRNA in the absence of chemical substance: 1.0
Yeast gene YMR191W
  The level of expressed mRNA in the presence of chemical substance/The level of expressed mRNA in the absence of chemical substance: 1.9
Yeast gene YMR295C
  The level of expressed mRNA in the presence of chemical substance/The level of expressed mRNA in the absence of chemical substance: 1.2
Yeast gene YMR316W
  The level of expressed mRNA in the presence of chemical substance/The level of expressed mRNA in the absence of chemical substance: 1.1
Yeast gene YNL026W
  level of expressed mRNA in the presence of chemical substance / level in the absence of chemical substance: 1.3
Yeast gene YNL044W
  The level of expressed mRNA in the presence of chemical substance/The level of expressed mRNA in the absence of chemical substance: 2.3

Source: US20100041089A1, “IMPROVED METHOD FOR DETECTING CHEMICAL […]” (priority 2006, published 2010)
